The values below come from patent US20210221866A1, “PROTEASE-RESISTANT LIPIDATED GLP-1 ANALOGS” (MEDIMMUNE LIMITED, priority 2015, published 2021).

Common to all, as to format: cell-based
In experiment [1] the target is T1, human glucose-dependent insulinotropic peptide receptor (GIPR) (Homo sapiens, UniProt P48546).
T1 construct: expressed in transfected cells; host or cells: HEK293 cells or CHO cells
T1 sequence (P48546 22-466): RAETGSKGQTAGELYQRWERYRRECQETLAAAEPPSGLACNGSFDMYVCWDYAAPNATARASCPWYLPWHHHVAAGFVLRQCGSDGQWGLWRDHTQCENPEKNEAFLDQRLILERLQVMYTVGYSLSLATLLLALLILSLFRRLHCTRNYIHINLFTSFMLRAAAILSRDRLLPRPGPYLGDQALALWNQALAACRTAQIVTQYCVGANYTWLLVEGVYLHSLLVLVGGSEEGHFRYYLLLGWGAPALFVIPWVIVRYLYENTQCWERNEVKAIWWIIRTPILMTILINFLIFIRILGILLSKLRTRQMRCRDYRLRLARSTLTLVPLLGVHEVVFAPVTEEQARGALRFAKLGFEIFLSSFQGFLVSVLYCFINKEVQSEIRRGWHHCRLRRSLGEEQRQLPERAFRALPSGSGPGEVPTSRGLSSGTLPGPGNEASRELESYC
In words: cAMP assay, human GIPR cells. The conditions noted are these: cAMP activity, read-out: Primary assay EC50 GIP-R. The essentials:
(§1)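 Peptide-stimulated cAMP measured by two-step HTRF after a 30 min room-temperature incubation with receptor-expressing cells (hGLP-1R, hGIPR at 1×10^5 cells/ml; hGCGR at 2×10^5 cells/ml). Duplicate dilutions; EC50 from 4-parameter logistic fit of % Delta F.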

Experiment [2] concerns the target T2, human GLP-1 receptor (GLP-1R) (Homo sapiens, UniProt P43220).
T2 construct: expressed in transfected cells; host or cells: HEK293 cells or CHO cells
In words: cAMP assay, human GLP-1R cells. To be noted: cAMP activity. The essentials: as §1

In the next experiment the target is T3, GLP-1R (INS1e cells) (Rattus norvegicus, UniProt P32301).
T3 construct: endogenous in cells; host or cells: INS1e cells
T3 sequence (P32301 22-463): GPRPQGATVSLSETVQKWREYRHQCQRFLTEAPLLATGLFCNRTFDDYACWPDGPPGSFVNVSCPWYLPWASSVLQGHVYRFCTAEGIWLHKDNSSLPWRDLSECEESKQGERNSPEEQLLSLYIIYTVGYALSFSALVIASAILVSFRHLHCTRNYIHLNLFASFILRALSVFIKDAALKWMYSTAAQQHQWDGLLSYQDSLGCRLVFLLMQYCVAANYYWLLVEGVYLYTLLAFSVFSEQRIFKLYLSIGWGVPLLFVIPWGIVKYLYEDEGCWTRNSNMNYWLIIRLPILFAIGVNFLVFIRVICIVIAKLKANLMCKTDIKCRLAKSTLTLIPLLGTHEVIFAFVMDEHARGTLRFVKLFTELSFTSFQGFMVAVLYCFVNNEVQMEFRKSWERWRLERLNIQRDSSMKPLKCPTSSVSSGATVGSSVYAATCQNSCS
In words: INS1e assay, cAMP activity at GLP-1R. To be noted: Table 8, substituted and mono-lipidated peptides.

Experiment [3] concerns the target T4, human glucagon receptor (GCGR) (Homo sapiens, UniProt P47871).
T4 construct: expressed in transfected cells; host or cells: HEK293 cells or CHO cells
In words: cAMP assay, human GCGR cells. To be noted: cAMP activity; second determination (n2); read-out: Primary assay EC50 Gluc-R. An outline of the steps:
as §1
(In general: Changes in cAMP serve as a functional read-out for many G protein-coupled receptors.)

[4] abbreviates: first determination (n1), read-out: Primary assay EC50 GLP-1R n1.
[5] abbreviates: mean of n1 and n2, read-out: Mean pM GLP-1R.
Setting [6] is: second determination (n2), read-out: Primary assay EC50 GLP-1R n2.
Where [7] appears, read: mean of n1 and n2, read-out: INS1e assay EC50 Mean pM GLP-1R.
[8] abbreviates: replicate n1, read-out: INS1e assay EC50 GLP-1R n1.
Where [9] appears, read: replicate n2, read-out: INS1e assay EC50 GLP-1R n2.

Where two headings read alike, the source gives them in different places. Numbered stars: 1 amine (or outer) side, 2 acyl side, 3 side chain; on linkers, the order of the positions; unused ones are H or OH. Square brackets hold non-standard residues; d marks the D form. Side chains are listed from the residue outwards. Peptide text beside a SMILES is read from it. * marks the point of attachment. C18 diacid = O=C(O)CCCCCCCCCCCCCCCCC(=O)*; γGlu = O=C(O)[C@H](CCC(=O)[*:2])N[*:1]; αMeF = C[C@](N)(Cc1ccccc1)C(=O)O; αMeK = C[C@](N)(CCCCN)C(=O)O; αMeS = C[C@](N)(CO)C(=O)O; AEEA = NCCOCCOCC(=O)O; Aib = CC(C)(N)C(=O)O A value given as a limit tells only on which side of the number the result lay.

T2 sequence (P43220 24-463): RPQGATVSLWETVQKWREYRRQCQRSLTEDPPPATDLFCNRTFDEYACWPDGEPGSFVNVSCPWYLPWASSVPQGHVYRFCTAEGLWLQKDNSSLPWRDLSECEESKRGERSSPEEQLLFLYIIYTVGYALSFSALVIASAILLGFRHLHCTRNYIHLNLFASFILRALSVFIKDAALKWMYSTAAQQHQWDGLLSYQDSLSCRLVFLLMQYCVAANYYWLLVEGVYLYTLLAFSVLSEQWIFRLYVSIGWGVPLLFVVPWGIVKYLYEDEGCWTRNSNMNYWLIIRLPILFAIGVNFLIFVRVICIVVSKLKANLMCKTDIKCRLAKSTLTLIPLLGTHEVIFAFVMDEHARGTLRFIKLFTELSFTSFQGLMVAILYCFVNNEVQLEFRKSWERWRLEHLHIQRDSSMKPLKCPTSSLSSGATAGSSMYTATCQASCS
T4 sequence (P47871 26-477): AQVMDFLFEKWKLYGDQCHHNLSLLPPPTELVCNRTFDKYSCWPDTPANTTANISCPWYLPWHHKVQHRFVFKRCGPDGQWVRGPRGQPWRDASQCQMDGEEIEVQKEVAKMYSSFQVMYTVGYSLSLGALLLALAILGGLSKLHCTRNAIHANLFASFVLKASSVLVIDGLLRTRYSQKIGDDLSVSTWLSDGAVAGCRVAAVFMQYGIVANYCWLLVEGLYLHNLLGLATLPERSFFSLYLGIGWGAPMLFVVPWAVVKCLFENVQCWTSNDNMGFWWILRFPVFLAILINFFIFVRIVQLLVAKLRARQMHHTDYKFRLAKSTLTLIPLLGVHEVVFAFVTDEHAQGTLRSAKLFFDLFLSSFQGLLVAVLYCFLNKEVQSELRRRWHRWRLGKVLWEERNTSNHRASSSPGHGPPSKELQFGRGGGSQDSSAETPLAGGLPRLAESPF

As to `CC[C@H](C)[C@H](NC(=O)[C@](C)(Cc1ccccc1)NC(=O)[C@H](CCC(=O)O)NC(=O)[C@H](CCCCNC(=O)COCCOCCNC(=O)COCCOCCNC(=O)CC[C@H](NC(=O)CCCCCCCCCCCCCCCCC(=O)O)C(=O)O)NC(=O)[C@H](C)NC(=O)[C@H](C)NC(=O)[C@H](CCC(=O)O)NC(=O)CNC(=O)[C@H](CCC(=O)O)NC(=O)[C@H](CC(C)C)NC(=O)[C@](C)(Cc1ccccc1)NC(=O)[C@H](CO)NC(=O)[C@H](CO)NC(=O)[C@@H](NC(=O)[C@H](CC(=O)O)NC(=O)[C@H](CO)NC(=O)[C@@H](NC(=O)[C@](C)(Cc1ccccc1)NC(=O)[C@H](CO)NC(=O)CNC(=O)[C@H](CCC(=O)O)NC(=O)C(C)(C)NC(=O)[C@@H](N)Cc1c[nH]cn1)[C@@H](C)O)C(C)C)C(=O)N[C@@H](C)C(=O)N[C@@](C)(Cc1ccccc1)C(=O)N[C@H](C(=O)N[C@H](C(=O)N[C@@](C)(CCCCN)C(=O)NCC(=O)NCC(N)=O)C(C)C)C(C)C` [compound 46], the EC50 in experiment [1] (first determination (n1)) was no less than 26 nM; in experiment [1] (second determination (n2)) it was no less than 26 nM; in experiment [2] (setting [4]) it was 920 pM; in experiment [2] (setting [5]) it was 1560 pM; in experiment [2] (setting [6]), 2200 pM; on GLP-1R (INS1e cells) (setting [7]), 68000 pM. Moreover, the EC50 at GLP-1R (INS1e cells) (setting [8]) is 52600 pM; at GLP-1R (INS1e cells) (setting [9]), 83400 pM; in experiment [3], no less than 26 nM.
As for `CC[C@H](C)[C@H](NC(=O)[C@](C)(Cc1ccccc1)NC(=O)[C@H](CCC(=O)O)NC(=O)[C@H](CCCCNC(=O)COCCOCCNC(=O)COCCOCCNC(=O)CC[C@H](NC(=O)CCCCCCCCCCCCCCCCC(=O)O)C(=O)O)NC(=O)[C@H](C)NC(=O)[C@H](C)NC(=O)[C@H](CCC(=O)O)NC(=O)CNC(=O)[C@H](CCC(=O)O)NC(=O)[C@H](CC(C)C)NC(=O)[C@H](Cc1ccc(O)cc1)NC(=O)[C@H](CO)NC(=O)[C@](C)(CO)NC(=O)[C@@H](NC(=O)[C@H](CC(=O)O)NC(=O)[C@H](CO)NC(=O)[C@@H](NC(=O)[C@](C)(Cc1ccccc1)NC(=O)[C@H](CO)NC(=O)CNC(=O)[C@H](CCC(=O)O)NC(=O)C(C)(C)NC(=O)[C@@H](N)Cc1c[nH]cn1)[C@@H](C)O)C(C)C)C(=O)N[C@@H](C)C(=O)N[C@@](C)(Cc1ccccc1)C(=O)N[C@H](C(=O)N[C@H](C(=O)N[C@@](C)(CCCCN)C(=O)NCC(=O)NCC(N)=O)C(C)C)C(C)C` [compound 47] (H-H[Aib]EGS[αMeF]TSDV[αMeS]SYLEGEAAK([AEEA-AEEA-γGlu-C18 diacid])E[αMeF]IA[αMeF]VV[αMeK]GG-NH2; N-terminus assumed), the EC50 in experiment [1] (first determination (n1)) is no less than 25 nM; in experiment [1] (second determination (n2)), no less than 25 nM; in experiment [2] (setting [4]), 37 pM; in experiment [2] (setting [5]), 43.3 pM; in experiment [2] (setting [6]), 50 pM; on GLP-1R (INS1e cells) (setting [7]), 9670 pM. The EC50 is 7130 pM on GLP-1R (INS1e cells) (setting [8]), 12200 pM at GLP-1R (INS1e cells) (setting [9]) and no less than 25 nM in experiment [3].
With `CC[C@H](C)[C@H](NC(=O)[C@](C)(Cc1ccccc1)NC(=O)[C@H](CCC(=O)O)NC(=O)[C@H](CCCCNC(=O)COCCOCCNC(=O)COCCOCCNC(=O)CC[C@H](NC(=O)CCCCCCCCCCCCCCCCC(=O)O)C(=O)O)NC(=O)[C@H](C)NC(=O)[C@H](C)NC(=O)[C@H](CCC(=O)O)NC(=O)CNC(=O)[C@H](CCC(=O)O)NC(=O)[C@H](CC(C)C)NC(=O)[C@](C)(Cc1ccccc1)NC(=O)[C@H](CO)NC(=O)[C@](C)(CO)NC(=O)[C@@H](NC(=O)[C@H](CC(=O)O)NC(=O)[C@H](CO)NC(=O)[C@@H](NC(=O)[C@](C)(Cc1ccccc1)NC(=O)[C@H](CO)NC(=O)CNC(=O)[C@H](CCC(=O)O)NC(=O)C(C)(C)NC(=O)[C@@H](N)Cc1c[nH]cn1)[C@@H](C)O)C(C)C)C(=O)N[C@@H](C)C(=O)N[C@@H](Cc1c[nH]c2ccccc12)C(=O)N[C@H](C(=O)N[C@H](C(=O)N[C@@](C)(CCCCN)C(=O)NCC(=O)NCC(N)=O)C(C)C)C(C)C` [compound 49] (H-H[Aib]EGS[αMeF]TSDV[αMeS]S[αMeF]LEGEAAK([AEEA-AEEA-γGlu-C18 diacid])E[αMeF]IAWVV[αMeK]GG-NH2; N-terminus assumed), the EC50 in experiment [1] (first determination (n1)) is no less than 25 nM; in experiment [1] (second determination (n2)), no less than 25 nM; in experiment [2] (setting [4]), 96 pM; in experiment [2] (setting [5]) it was 124 pM; in experiment [2] (setting [6]), 150 pM; at GLP-1R (INS1e cells) (setting [7]), 10000 pM. Moreover, the values for the EC50 (on GLP-1R (INS1e cells) (setting [8]); at GLP-1R (INS1e cells) (setting [9]); in experiment [3]) were 9350 pM, 10700 pM and no less than 25 nM, respectively.
For the molecule `CCCCCCCCCCCCCCCCCC(=O)NCCOCCOCC(=O)NCCOCCOCC(=O)NCCOCCOCC(=O)NCCCC[C@H](NC(=O)[C@H](C)NC(=O)[C@H](C)NC(=O)[C@H](CCC(=O)O)NC(=O)CNC(=O)[C@H](CCC(=O)O)NC(=O)[C@H](CC(C)C)NC(=O)[C@](C)(Cc1ccccc1)NC(=O)[C@H](CO)NC(=O)[C@](C)(CO)NC(=O)[C@@H](NC(=O)[C@H](CC(=O)O)NC(=O)[C@H](CO)NC(=O)[C@@H](NC(=O)[C@](C)(Cc1ccccc1)NC(=O)[C@H](CO)NC(=O)CNC(=O)[C@H](CCC(=O)O)NC(=O)C(C)(C)NC(=O)[C@@H](N)Cc1c[nH]cn1)[C@@H](C)O)C(C)C)C(=O)N[C@@H](CCC(=O)O)C(=O)N[C@@](C)(Cc1ccccc1)C(=O)N[C@H](C(=O)N[C@@H](C)C(=O)N[C@@](C)(Cc1ccccc1)C(=O)N[C@H](C(=O)N[C@H](C(=O)N[C@@H](CCCCN)C(=O)NCC(=O)NCC(N)=O)C(C)C)C(C)C)[C@@H](C)CC` [compound 56], the EC50 in experiment [1] (first determination (n1)) is no less than 26 nM; in experiment [1] (second determination (n2)), no less than 26 nM; in experiment [2] (setting [4]), 2.9 pM; in experiment [2] (setting [5]) it was 3.2 pM; in experiment [2] (setting [6]), 3.5 pM; on GLP-1R (INS1e cells) (setting [7]), 56 pM. Also, the EC50 at GLP-1R (INS1e cells) (setting [8]) was 35.2 pM; at GLP-1R (INS1e cells) (setting [9]) it was 77 pM; in experiment [3] it was no less than 26 nM.
As to `CC[C@H](C)[C@H](NC(=O)[C@](C)(Cc1ccccc1)NC(=O)[C@H](CCC(=O)O)NC(=O)[C@](C)(CCCCN)NC(=O)[C@H](C)NC(=O)[C@H](C)NC(=O)[C@H](CCC(=O)O)NC(=O)CNC(=O)[C@H](CCC(=O)O)NC(=O)[C@H](CC(C)C)NC(=O)[C@](C)(Cc1ccccc1)NC(=O)[C@H](CO)NC(=O)[C@](C)(CO)NC(=O)[C@@H](NC(=O)[C@H](CC(=O)O)NC(=O)[C@H](CO)NC(=O)[C@@H](NC(=O)[C@](C)(Cc1ccccc1)NC(=O)[C@H](CO)NC(=O)CNC(=O)[C@H](CCC(=O)O)NC(=O)C(C)(C)NC(=O)[C@@H](N)Cc1c[nH]cn1)[C@@H](C)O)C(C)C)C(=O)N[C@@H](C)C(=O)N[C@@](C)(Cc1ccccc1)C(=O)N[C@H](C(=O)N[C@H](C(=O)N[C@@](C)(CCCCN)C(=O)NCC(=O)N[C@@H](CCCCNC(=O)COCCOCCNC(=O)COCCOCCNC(=O)CC[C@H](NC(=O)CCCCCCCCCCCCCCCCC(=O)O)C(=O)O)C(N)=O)C(C)C)C(C)C` [compound 99] (H-H[Aib]EGS[αMeF]TSDV[αMeS]S[αMeF]LEGEAA[αMeK]E[αMeF]IA[αMeF]VV[αMeK]GK([AEEA-AEEA-γGlu-C18 diacid])-NH2; N-terminus assumed), the EC50 in experiment [1] (first determination (n1)) was no less than 25 nM; in experiment [1] (second determination (n2)), no less than 24.9 nM; in experiment [2] (setting [4]), 58 pM; in experiment [2] (setting [5]), 54 pM; in experiment [2] (setting [6]), 49.3 pM; on GLP-1R (INS1e cells) (setting [7]) it was 8440 pM. For the same molecule, the EC50 on GLP-1R (INS1e cells) (setting [8]) was 11000 pM; at GLP-1R (INS1e cells) (setting [9]), 5880 pM; in experiment [3], no less than 24.9 nM.
